For one series, the system named is U373 cells. Nature of the series: Viable cell count (trypan blue), daily oligonucleotide plus lipofectamine. The series is classed as cell-based, human. Here is the method: (§1) Cells (10,000/well) were seeded on 96 well tissue culture dishes, and treated every 24 hours. A 10× concentrated mixture of oligonucleotides plus lipofectamine in water was prepared containing 5 micromolar oligonucleotide and 80 microgram per ml lipofectamine™ (Gibco/BRL) and incubated for 10 min at room temperature. Media was removed from the cells, 10 microliters of the oligonucleotide/lipofectamine mixture was added directly to the cultured cells followed by 90 microliters of media plus serum. The media was changed with oligonucleotide/lipofectamine treatments every 24 h. Cells were passaged when the control cells reached confluency, and viable cells were counted after staining with Trypan Blue (GibcoBRL). The numbers of cells treated only with lipofectamine were used as the control to calculate percentages of cell survival or viability.

Series [1] has as its system human melanoma cell line, A375. Nature of the series: Viable cell count, daily oligonucleotide plus lipofectamine. Particulars: A375, 0.5 micromolar daily plus lipofectamine. The series is classed as cell-based. The method, then:
as §1
(§2) Similarly, the viability of the breast cancer cell line, MDA468, was reduced by 64% by SpA4-anti-hTR, while the control oligonucleotides reduced cell viability by <20% (FIG. 6). Viability of the human melanoma cell line, A375, was reduced by 43% in three days by SpA4-anti-hTR, while the control oligonucleotides had no effect (FIG. 7). […] Viability of a third human melanoma cell line, SK-MEL-5, was reduced by 43% by SpA4-anti-hTR, with minimal effects by the control oligonucleotides (FIG. 7). Two prostate tumor cells lines, PC3 and DU145, were suppressed by SpA4-anti-hTR treatments by 45% and 60%, respectively (FIGS. 6 and 10). […] The viability of the malignant glioma cell line, U373, was reduced by about 60% in 3 days, with intermediate effects by the control oligonucleotides (FIG. 6). Therefore, the proliferation and survival of every tumor cell type tested was inhibited by SpA4-anti-hTR. […] In contrast, there was no apoptosis detected in the control cells treated with lipofectamine without oligonucleotide (FIG. 12 upper panel).

Series [2] concerns human melanoma cell line, SK-MEL-2. The description is as above. The series is classed as cell-based. The settings on record: SK-MEL-2, 0.5 micromolar daily plus lipofectamine. Here is the method:
as §1, §2

In series [3] the test system is human melanoma cell line, SK-MEL-5. Described as above. Particulars: SK-MEL-5, 0.5 micromolar daily plus lipofectamine. The class given is cell-based. Here is the method:
as §1, §2

A further series has as its system U251-MG tumors. Kind of series: In situ end-labeling (TUNEL) of DNA in subcutaneous xenografts. The class given is in vivo, nude mice. The settings on record: 5 nmol every day for 7 days. The source says:
FIG. 14. In situ end-labeling of DNA in subcutaneous xenografts of nude mice. After treatment with oligonucleotides (5 nmol, every day) for 7 days, the mice were sacrificed and the subcutaneous mass was removed, frozen, and sectioned on a cryostat. The tumor specimens from U251-MG cells were counterstained by hematoxylin and eosin following the TUNEL technique. Arrows show representatives of tumor cells positive for DNA fragmentation (×400). (above) spA4-anti-(M6)hTR, 7 Day; (below) spA4-anti-hTR, 7 Day.
To further determine whether treatment with oligonucleotides induced apoptosis, tumor cells and tissues were stained by the terminal deoxynucleotidyl transferase (TdT)-mediated DUTP nick end labeling (TUNEL) technique using Apo-Tag kit (peroxidase conjugated) (Oncor Inc., Gaithersburg, Md.). The staining of apoptotic cells was done on U373MG cells. Oligonucleotides with lipofectamine was added to the cells every day. The final concentrations were 0.5 micromolar and 8 microgram/ml for oligo and lipofectamine, respectively. […]
U251-MG and U373 MG tumor cells (1.0×10^6 cells in 0.1 ml serum free DMEM and 0.1 ml Matrigel) were injected subcutaneously into the right flank of 8-12 week-old female Balb/c nude mice (5 mice for each treatment group). Tumor growth was monitored using calipers every 2- or 3-days. Tumor volume (V) was calculated as (L×W^2)/2, where L=length (mm) and W=width (mm). […]

In the next series the test system is U373-MG cells. Kind of series: Combination with cisplatin in vitro, MTT assay. The class given is cell-based, human. Particulars: treatment with spA4-anti-hTR. Here is the method: FIG. 17. Effect of combining 2-5A-anti-hTR with cisplatin on malignant glioma U373-MG cells in vitro and in vivo. FIG. 17A Tumor cells were treated with 2-5A-anti-hTR (0.5 μM, every 24 hr) mixed with Lipofectamine (1.0 μl/25 μl DMEM) or cisplatin for three days, and their viability was determined by MTT assay. Values represent the means±S.D. FIG. 17B Tumors from U373-MG cells (1.0×10^6 cells in 0.05 ml serum free DMEM and 0.05 ml matrigel) were established subcutaneously in nude mice. After four or five weeks when the tumors were approximately 60-100 mm^3, spA4-anti-hTR (5 nmol/20 μl sterile distilled water) were administrated directly into the tumors daily for 7 days. Cisplatin (1.0 or 5.0 mg/kg/mice) was administered intraperitoneally on Days 1, 3 and 5. Five Mice were used in each treatment group. Tumor volume was then determined using calipers, and the mean sizes ±S.D. were calculated.
To determine if the anti-malignant glioma cell activity of chemotherapeutic agent, cisplatin, could be enhance with SpA4-anti-hTR, a combination therapy protocol was devised (FIG. 17). The point at which 50% cell death was achieved was using 1 microgram per ml of cisplatin plus 0.5 micromolar of SpA4-anti-hTR; whereas in the absence of SpA4-anti-hTR, >10 micrograms per ml of cisplatin were required to achieve 50% cell death (FIG. 17). […] Furthermore, we determined the effect of combining 2-5A-anti-hTR with cisplatin on U373-MG cells in vitro and in vivo. […] The IC50 of cisplatin was reduced from 10.0 to 1.0 μg/ml by combination of spA4-anti-hTR.

Setting [4] is: U373, 0.5 micromolar daily plus lipofectamine, 3 days.

Experimental findings from patent US6468983B2, “RNase L activators and antisense oligonucleotides effective to treat telomerase-expressing malignancies” (The Cleveland Clinic Foundation, priority 1997, dated 2002) are described below.

Bounds are passed on as bounds.

Take “Sp5′A2′p(5′A2p)3-[(Bu)p]2-5′GCG CGG GGA GCA AAA GCA C3′-3′T5′ (antisense GCGCGGGGAGCAAAAGCAC; 5'-thiophosphate 2-5A tetramer, butanediol linkers, 3'-3'T cap, chemistry not fully specified) [spA4-anti-hTR, 2-5A tetramer linked by butanediol linkers to 19-mer antisense against human telomerase RNA nucleotides 76 to 94]”: the “increase in the anti-tumor cell effect by use of lipofectamine” value in the series on U373 cells (0.5 micromolar once a day with lipofectamine versus without) is given as “about 10 fold”. Moreover, the “effect on growth/viability (in words)” value (with U373 cells (setting [4]); in series [1]; in series [2]; in series [3]) was “specifically suppressed growth” in each case. The reduction in viability result in the series on U373 cells (setting [4]) is on record as “about 60%”; in the series with U373 cells (U373, 0.5 micromolar daily plus lipofectamine, 8 days) it was 90%; in series [1] (three days), 43%; in series [3] it was 43%. In the series on U373 cells (U373, 0.5 micromolar daily plus lipofectamine, 7 days, two separate cultures), the “cell viability reduced to” value is less than 2%. Besides, the “reduction of the dose required to block proliferation and survival of tumor cells using lipofectamine” value in the series with U373 cells (with lipofectamine versus without) came out at 10 fold. For the same substance, the survival in series [2] is given as less than 0.1%. Further, in the series on U251-MG tumors, the “apoptotic cells observed in tumors (TUNEL)” value is on record as “many apoptotic cells”. Further, the “susceptibility of U373-MG cells to cisplatin (in words)” value in the series with U373-MG cells was “increased the susceptibility”.
